According to US20060074079A1, “Solid pharmaceutical formulations comprising Diacereine and Meloxicam” (Leopoldo Espinosa Abdala, priority 2004, published 2006):

Assays:
[1] = tested on: gout arthritis induced by intra-articular uric acid; assay: Pain Induced Functional Impairment model in the Rat (PIFIR), analgesic activity; assay type: in vivo, male Wistar rats; conditions: oral, single doses, rats with gout arthritis, FIG. 1
Experimental: The experiments were carried out using male Wistar rats having a body weight between 180 and 200 g. […] The number of test animals was taken to the minimal (6 animals for each experimental aspect). Animals were kept in a room with light/darkness cycles. Rats were fastened twelve hours prior the beginning of experiments, leaving only free access to water. All the experiments were run during the light phase, using the animals only once.
The evaluation of analgesic effects was carried out using the Pain Induced Functional Impairment model in the Rat (PIFIR) model. Animals were anesthetized in a glass desiccator saturated with ether vapors. Gout arthritis was induced, upon application of a intra-articular injection of 0.05 ml of uric acid suspended in mineral oil, in the right-side hind leg, exactly in the femoral-tibio-patellar joint. […] Variable measured was contact time of each hind leg of every rat in the cylinder.
Rats were administered with each of the compounds orally. […] This period of time (2.5 hours after administration of uric acid) was considered as time “0”, in order to administer in this point of time the antinociceptive or analgesic treatment and the temporary course of each treatment were determined during the following 4 continuous hours. […]
Data are expressed as Percentage of Functionality Index (FI %). […]

[2] = tested on: Interleukin-1 beta production in human monocytes; conditions: human monocytes in vitro (Berdah et al., 1993); cited from earlier work
[3] = tested on: cyclooxygenase (COX) from kidney or platelet; conditions: from kidney or platelet (LaVilla et al., 1989); cited from earlier work
[4] = clinical trials, administered to 2 years; cited from earlier work

Structure (SMILES): CC(=O)Oc1cccc2c1C(=O)c1c(OC(C)=O)cc(C(=O)O)cc1C2=O [Diacereine, 1,8-diacetoxy-3-carboxy-anthraquinone]
- TC efficacy (analgesic effect, FI % temporal course) [1]: unable to generate analgesic effects
- Interleukin-1 beta production [2]: inhibit
- activity of cyclooxygenase (COX) [3]: does not disrupt
- safety on long-term administration [4]: without having safety problems

Structure (SMILES): O=C(O)c1cc(O)c2c(c1)C(=O)c1cccc(O)c1C2=O [reine, Reine]
- Interleukin-1 beta production [2]: inhibit
